Tests used:
Assay in all cases: fluorescent HDAC activity assay (BIOMOL kit) with purified HDAC
Type in all cases: biochemical
HDAC2 = HDAC2 (Homo sapiens, UniProt Q92769)
HDAC 3 = target: T1, HDAC 3 (Homo sapiens, UniProt O15379)
T1 construct: gene HDAC3

HDAC6 = target: T2, HDAC6 (Homo sapiens, UniProt Q9UBN7)
T2 sequence (Q9UBN7 1-1215): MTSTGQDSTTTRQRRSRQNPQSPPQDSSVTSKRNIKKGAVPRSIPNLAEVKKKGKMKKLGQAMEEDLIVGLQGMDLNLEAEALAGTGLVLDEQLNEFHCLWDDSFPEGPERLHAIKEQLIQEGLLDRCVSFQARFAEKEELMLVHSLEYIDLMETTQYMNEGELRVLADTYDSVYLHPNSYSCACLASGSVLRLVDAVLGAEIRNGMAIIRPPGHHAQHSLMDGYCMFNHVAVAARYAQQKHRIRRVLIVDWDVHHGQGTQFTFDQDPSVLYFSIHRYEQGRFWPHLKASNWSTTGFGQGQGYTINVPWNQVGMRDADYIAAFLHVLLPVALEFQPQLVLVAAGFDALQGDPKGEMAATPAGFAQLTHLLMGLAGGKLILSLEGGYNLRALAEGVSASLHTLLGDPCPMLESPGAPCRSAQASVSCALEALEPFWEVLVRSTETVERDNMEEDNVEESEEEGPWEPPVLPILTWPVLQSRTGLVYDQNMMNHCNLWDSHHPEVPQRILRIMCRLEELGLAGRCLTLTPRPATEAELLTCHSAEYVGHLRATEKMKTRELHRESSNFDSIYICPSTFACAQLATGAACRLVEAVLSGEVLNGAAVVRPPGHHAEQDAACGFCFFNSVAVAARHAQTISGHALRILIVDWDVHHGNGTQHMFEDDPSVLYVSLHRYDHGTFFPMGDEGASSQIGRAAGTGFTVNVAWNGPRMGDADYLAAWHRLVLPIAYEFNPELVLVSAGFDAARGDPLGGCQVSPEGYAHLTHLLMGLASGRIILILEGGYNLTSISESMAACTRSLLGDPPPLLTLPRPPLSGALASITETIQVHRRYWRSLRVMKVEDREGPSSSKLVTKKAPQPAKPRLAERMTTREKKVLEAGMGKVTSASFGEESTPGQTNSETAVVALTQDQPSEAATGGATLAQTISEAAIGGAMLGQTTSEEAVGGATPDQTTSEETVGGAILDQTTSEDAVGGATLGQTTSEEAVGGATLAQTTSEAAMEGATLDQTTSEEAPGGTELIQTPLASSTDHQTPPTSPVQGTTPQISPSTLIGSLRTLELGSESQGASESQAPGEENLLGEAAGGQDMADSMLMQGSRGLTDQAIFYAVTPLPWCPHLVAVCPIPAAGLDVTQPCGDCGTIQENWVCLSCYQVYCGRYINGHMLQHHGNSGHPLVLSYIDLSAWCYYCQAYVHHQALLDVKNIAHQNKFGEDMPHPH

HDAC4 = HDAC4 (Homo sapiens, UniProt P56524)
HDAC1 = HDAC1 (Homo sapiens, UniProt Q13547)
HDAC5 = HDAC5 (Homo sapiens, UniProt Q9UQL6)

Measured: IC50

Chain of HDAC5 (Q9UQL6 whole entry): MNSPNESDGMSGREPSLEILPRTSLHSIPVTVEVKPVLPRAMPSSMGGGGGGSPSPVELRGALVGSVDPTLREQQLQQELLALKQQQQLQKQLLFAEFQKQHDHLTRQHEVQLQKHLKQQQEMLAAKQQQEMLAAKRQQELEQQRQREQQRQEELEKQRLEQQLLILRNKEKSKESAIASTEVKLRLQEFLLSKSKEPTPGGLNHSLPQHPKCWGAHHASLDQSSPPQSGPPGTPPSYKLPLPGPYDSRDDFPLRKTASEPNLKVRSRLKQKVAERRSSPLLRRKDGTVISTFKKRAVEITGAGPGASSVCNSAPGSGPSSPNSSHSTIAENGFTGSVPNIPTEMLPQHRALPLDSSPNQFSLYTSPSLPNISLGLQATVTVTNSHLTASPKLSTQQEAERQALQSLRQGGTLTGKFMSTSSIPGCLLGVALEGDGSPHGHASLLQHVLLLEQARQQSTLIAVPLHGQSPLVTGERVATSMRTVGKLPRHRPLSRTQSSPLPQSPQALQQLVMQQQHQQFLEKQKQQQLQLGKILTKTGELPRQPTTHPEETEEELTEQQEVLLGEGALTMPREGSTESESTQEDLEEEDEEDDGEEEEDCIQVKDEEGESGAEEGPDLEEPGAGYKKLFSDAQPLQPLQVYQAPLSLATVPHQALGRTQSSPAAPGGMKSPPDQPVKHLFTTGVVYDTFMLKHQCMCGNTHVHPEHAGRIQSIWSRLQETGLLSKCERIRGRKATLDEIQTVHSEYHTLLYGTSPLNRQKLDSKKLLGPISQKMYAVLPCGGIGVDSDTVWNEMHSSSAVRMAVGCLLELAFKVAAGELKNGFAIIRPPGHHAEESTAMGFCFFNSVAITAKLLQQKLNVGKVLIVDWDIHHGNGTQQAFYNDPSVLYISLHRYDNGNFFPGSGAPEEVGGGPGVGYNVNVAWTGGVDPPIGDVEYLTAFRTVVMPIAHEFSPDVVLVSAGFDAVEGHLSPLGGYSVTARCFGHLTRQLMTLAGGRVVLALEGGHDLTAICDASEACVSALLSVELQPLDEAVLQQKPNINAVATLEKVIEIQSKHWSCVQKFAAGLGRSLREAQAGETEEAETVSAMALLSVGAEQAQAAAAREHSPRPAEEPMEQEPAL
T1 sequence (O15379 whole entry): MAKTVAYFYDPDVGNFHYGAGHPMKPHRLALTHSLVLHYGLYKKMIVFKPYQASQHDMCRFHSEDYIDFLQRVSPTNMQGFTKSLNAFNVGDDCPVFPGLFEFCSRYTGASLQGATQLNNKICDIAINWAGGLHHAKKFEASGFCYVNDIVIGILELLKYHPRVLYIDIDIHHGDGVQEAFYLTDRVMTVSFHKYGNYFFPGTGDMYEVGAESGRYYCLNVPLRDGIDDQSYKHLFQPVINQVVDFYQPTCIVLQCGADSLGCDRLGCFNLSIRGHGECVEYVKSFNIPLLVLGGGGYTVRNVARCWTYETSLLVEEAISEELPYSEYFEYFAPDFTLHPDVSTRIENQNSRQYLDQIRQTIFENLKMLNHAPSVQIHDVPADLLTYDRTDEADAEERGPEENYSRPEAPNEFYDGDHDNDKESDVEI
Chain of HDAC1 (Q13547 whole entry): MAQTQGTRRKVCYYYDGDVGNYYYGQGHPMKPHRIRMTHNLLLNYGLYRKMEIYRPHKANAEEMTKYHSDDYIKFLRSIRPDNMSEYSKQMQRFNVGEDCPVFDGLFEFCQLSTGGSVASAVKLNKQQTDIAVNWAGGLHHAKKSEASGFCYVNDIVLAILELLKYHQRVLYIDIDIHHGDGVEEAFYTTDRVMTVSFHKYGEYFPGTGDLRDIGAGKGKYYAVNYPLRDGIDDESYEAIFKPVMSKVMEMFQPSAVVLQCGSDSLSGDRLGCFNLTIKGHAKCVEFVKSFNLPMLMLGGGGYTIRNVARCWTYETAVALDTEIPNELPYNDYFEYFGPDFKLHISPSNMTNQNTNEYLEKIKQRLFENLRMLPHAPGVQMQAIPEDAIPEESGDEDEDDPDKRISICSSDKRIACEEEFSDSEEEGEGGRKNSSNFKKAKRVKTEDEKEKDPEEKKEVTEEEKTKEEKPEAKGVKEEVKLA
Chain of HDAC4 (P56524 whole entry): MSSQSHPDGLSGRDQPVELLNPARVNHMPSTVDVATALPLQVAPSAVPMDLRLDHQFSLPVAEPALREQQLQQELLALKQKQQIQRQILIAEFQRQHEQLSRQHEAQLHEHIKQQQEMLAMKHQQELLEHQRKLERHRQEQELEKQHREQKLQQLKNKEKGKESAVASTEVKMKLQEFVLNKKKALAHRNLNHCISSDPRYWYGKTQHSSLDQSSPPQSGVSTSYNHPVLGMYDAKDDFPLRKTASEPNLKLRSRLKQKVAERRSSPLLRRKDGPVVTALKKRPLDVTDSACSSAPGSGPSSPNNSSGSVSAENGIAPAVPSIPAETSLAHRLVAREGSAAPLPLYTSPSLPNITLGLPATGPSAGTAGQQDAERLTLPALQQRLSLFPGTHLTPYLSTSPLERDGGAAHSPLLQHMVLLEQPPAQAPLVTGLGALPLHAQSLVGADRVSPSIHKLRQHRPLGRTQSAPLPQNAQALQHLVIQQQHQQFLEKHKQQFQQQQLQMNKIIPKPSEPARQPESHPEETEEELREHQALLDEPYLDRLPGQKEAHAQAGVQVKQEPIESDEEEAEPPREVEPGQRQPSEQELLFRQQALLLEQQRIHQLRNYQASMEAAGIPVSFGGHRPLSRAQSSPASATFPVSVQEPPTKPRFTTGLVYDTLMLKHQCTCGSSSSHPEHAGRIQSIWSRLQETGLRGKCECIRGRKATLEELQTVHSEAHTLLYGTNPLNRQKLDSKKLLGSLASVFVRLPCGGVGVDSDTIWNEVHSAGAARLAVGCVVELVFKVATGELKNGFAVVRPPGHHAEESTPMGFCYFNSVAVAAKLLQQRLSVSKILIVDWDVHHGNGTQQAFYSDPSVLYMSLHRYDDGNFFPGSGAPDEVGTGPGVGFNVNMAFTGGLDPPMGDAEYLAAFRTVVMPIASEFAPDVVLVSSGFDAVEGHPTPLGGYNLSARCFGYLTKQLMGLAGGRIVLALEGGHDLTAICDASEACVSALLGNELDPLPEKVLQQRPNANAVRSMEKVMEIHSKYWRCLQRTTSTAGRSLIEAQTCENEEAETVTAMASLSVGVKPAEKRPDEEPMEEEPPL
Chain of HDAC2 (Q92769 whole entry): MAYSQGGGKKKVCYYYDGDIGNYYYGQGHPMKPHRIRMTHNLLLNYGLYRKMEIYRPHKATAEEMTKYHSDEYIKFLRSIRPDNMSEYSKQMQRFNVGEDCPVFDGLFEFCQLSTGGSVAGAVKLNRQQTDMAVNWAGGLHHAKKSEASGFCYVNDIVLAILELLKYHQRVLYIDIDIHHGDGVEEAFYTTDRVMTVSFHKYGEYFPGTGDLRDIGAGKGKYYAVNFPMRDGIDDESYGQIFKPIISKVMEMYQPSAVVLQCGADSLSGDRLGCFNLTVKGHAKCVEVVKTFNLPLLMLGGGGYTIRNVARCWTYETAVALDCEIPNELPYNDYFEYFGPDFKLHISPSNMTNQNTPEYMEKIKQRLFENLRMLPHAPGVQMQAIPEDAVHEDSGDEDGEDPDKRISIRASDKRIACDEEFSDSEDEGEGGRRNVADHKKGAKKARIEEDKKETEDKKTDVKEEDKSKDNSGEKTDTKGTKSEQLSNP

PAC-320
450 to 1390 nM: all assays above

— publication PMC5787485, “HDAC inhibitor PAC-320 induces G2/M cell cycle arrest and apoptosis in human prostate cancer” (Oncotarget, 2017)
